{
  "source": "paper PMC6934184",
  "about": "“Selective DNA-PKcs inhibition extends the therapeutic index of localized radiotherapy and chemotherapy” (The Journal of Clinical Investigation, 2019)",
  "target": "T1, HCK (Homo sapiens, UniProt P08631)",
  "T1 construct": "purchased Thermo Fisher Scientific (Life Technologies) SelectScreen",
  "T1 sequence (P08631 whole entry)": "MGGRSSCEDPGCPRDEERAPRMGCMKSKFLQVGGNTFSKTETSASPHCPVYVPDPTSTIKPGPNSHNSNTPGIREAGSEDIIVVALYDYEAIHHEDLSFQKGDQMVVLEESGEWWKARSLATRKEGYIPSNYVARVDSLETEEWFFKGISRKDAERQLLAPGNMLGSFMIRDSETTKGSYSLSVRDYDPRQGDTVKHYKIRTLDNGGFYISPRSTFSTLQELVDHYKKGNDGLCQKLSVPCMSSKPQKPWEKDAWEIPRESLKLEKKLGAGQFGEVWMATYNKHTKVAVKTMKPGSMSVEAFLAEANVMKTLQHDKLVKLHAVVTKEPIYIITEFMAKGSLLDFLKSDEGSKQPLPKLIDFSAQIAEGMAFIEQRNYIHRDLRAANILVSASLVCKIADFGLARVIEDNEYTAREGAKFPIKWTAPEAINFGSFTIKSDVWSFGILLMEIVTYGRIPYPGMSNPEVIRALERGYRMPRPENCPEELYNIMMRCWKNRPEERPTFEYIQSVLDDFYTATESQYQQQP",
  "assay": "SelectScreen Z'LYTE",
  "format": "biochemical",
  "summary_of_the_method": "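Percent values come from Thermo SelectScreen profiling of NU5455, combining activity and binding assays. CSF1R was run in Z'LYTE format at Km app ATP, and CAMK1 in Adapta format with ATP listed at 10.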",
  "data": [
    {"smiles": "CN(C(=O)CN1CCOCC1)c1ccc2sc3c(-c4cccc5c(=O)cc(N6CC7CCC(C6)O7)oc45)cccc3c2c1", "note": "[NU5455]", "values": [
      {"measurement": "inhibition at 1 µM", "value": 18, "unit": "%"}
    ]}
  ]
}
